From PubChem BioAssay AID2060893 (Molecular Pharmacology Branch, DTP, NCI, 2025)

Test system: K86415-001-R-J1-PDC complex spheroids, viability
Test: Anticancer human tumor K86415-001-R-J1-PDC patient-derived lung adenocarcinoma cell line growth inhibition [RAS]
Conditions: for IC50: curve of first compound; for viability, T/C: stronger effect = lower value
Procedure, shortened: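 Tumour cells grown as complex spheroids with HUVEC endothelial cells and mesenchymal stem cells, treated with RAS pathway inhibitor combinations. Each agent spans half-log steps from near clinical Cmax, or 10 microM where Cmax is unknown.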
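Also: spheroids exposed to agents for seven days before readout.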

In the case of `CCc1c2c(nc3ccc(O)cc13)-c1cc3c(c(=O)n1C2)COC(=O)[C@]3(O)CC` + CCn1c(-c2cccnc2C(C)OC)c2c3cc(ccc31)N1CCOC(CC(NC(=O)C(C(C)C)N(C)C(=O)C3(F)CCN(C(=O)C#CC(C)(C)N(C)C)CC3)C(=O)N3CCCC(N3)C(=O)OCC(C)(C)C2)C1, the IC50 (second compound 0.000949 µM) is reported as under 0.949 nM, the IC50 (second compound 0.003 µM) is reported as under 0.949 nM and the IC50 (second compound 0.00949 µM) is reported as under 0.949 nM. It also gave an IC50 (second compound 0.03 µM) of under 0.949 nM, an IC50 (second compound 0.0949 µM) of under 0.949 nM and an IC50 (second compound 0.3 µM) of under 0.949 nM. For the same compound, the viability, T/C (second compound 0.000949 µM, first compound 0.000949 µM) was 36.7%, the viability, T/C (second compound 0.000949 µM, first compound 0.003 µM) was 25.1% and the viability, T/C (second compound 0.000949 µM, first compound 0.00949 µM) was 10.1%. For the same compound, the viability, T/C (second compound 0.000949 µM, first compound 0.03 µM) was 12.2%, the viability, T/C (second compound 0.000949 µM, first compound 0.0949 µM) was 9.29% and the viability, T/C (second compound 0.000949 µM, first compound 0.3 µM) was 3.47%. It also gave a viability, T/C (second compound 0.003 µM, first compound 0.000949 µM) of 11.9%, a viability, T/C (second compound 0.003 µM, first compound 0.003 µM) of 13.2% and a viability, T/C (second compound 0.003 µM, first compound 0.00949 µM) of 9.42%. The viability, T/C (second compound 0.003 µM, first compound 0.03 µM) was 10.6%, the viability, T/C (second compound 0.003 µM, first compound 0.0949 µM) was 6.9% and the viability, T/C (second compound 0.003 µM, first compound 0.3 µM) was 2.68%. The viability, T/C (second compound 0.00949 µM, first compound 0.000949 µM) was 11.8%, the viability, T/C (second compound 0.00949 µM, first compound 0.003 µM) was 10.5% and the viability, T/C (second compound 0.00949 µM, first compound 0.00949 µM) was 10.8%. For the same compound, the viability, T/C (second compound 0.00949 µM, first compound 0.03 µM) was 9.69%, the viability, T/C (second compound 0.00949 µM, first compound 0.0949 µM) was 7.47% and the viability, T/C (second compound 0.00949 µM, first compound 0.3 µM) was 3.83%. It also gave a viability, T/C (second compound 0.03 µM, first compound 0.000949 µM) of 10.7%, a viability, T/C (second compound 0.03 µM, first compound 0.003 µM) of 11.6% and a viability, T/C (second compound 0.03 µM, first compound 0.00949 µM) of 8.61%. For the same compound, the viability, T/C (second compound 0.03 µM, first compound 0.03 µM) was 10.2%, the viability, T/C (second compound 0.03 µM, first compound 0.0949 µM) was 6.38% and the viability, T/C (second compound 0.03 µM, first compound 0.3 µM) was 2.86%. For the same compound, the viability, T/C (second compound 0.0949 µM, first compound 0.000949 µM) was 10.8%, the viability, T/C (second compound 0.0949 µM, first compound 0.003 µM) was 9.6% and the viability, T/C (second compound 0.0949 µM, first compound 0.00949 µM) was 10.9%. For the same compound, the viability, T/C (second compound 0.0949 µM, first compound 0.03 µM) was 9.82%, the viability, T/C (second compound 0.0949 µM, first compound 0.0949 µM) was 3.93% and the viability, T/C (second compound 0.0949 µM, first compound 0.3 µM) was 2.05%. The viability, T/C (second compound 0.3 µM, first compound 0.000949 µM) was 13.9%, the viability, T/C (second compound 0.3 µM, first compound 0.003 µM) was 9.91% and the viability, T/C (second compound 0.3 µM, first compound 0.00949 µM) was 7.1%. It also gave a viability, T/C (second compound 0.3 µM, first compound 0.03 µM) of 6.45%, a viability, T/C (second compound 0.3 µM, first compound 0.0949 µM) of 3.04% and a viability, T/C (second compound 0.3 µM, first compound 0.3 µM) of 2.24%.

`Nc1ccn(C2OC(CO)C(O)C2(F)F)c(=O)n1` (centres undefined) + CCn1c(-c2cccnc2C(C)OC)c2c3cc(ccc31)N1CCOC(CC(NC(=O)C(C(C)C)N(C)C(=O)C3(F)CCN(C(=O)C#CC(C)(C)N(C)C)CC3)C(=O)N3CCCC(N3)C(=O)OCC(C)(C)C2)C1 gave an IC50 (second compound 0.000949 µM) of under 3.16 nM, an IC50 (second compound 0.003 µM) of under 3.16 nM and an IC50 (second compound 0.00949 µM) of under 3.16 nM. It also gave an IC50 (second compound 0.03 µM) of under 3.16 nM, an IC50 (second compound 0.0949 µM) of under 3.16 nM and an IC50 (second compound 0.3 µM) of under 3.16 nM. For the same compound, the viability, T/C (second compound 0.000949 µM, first compound 0.00316 µM) was 37.9%, the viability, T/C (second compound 0.000949 µM, first compound 0.01 µM) was 34.3% and the viability, T/C (second compound 0.000949 µM, first compound 0.0316 µM) was 19.9%. It also gave a viability, T/C (second compound 0.000949 µM, first compound 0.1 µM) of 27%, a viability, T/C (second compound 0.000949 µM, first compound 0.316 µM) of 19.2% and a viability, T/C (second compound 0.000949 µM, first compound 1 µM) of 9.69%. The viability, T/C (second compound 0.003 µM, first compound 0.00316 µM) was 15.3%, the viability, T/C (second compound 0.003 µM, first compound 0.01 µM) was 11.6% and the viability, T/C (second compound 0.003 µM, first compound 0.0316 µM) was 10.8%. For the same compound, the viability, T/C (second compound 0.003 µM, first compound 0.1 µM) was 12.3%, the viability, T/C (second compound 0.003 µM, first compound 0.316 µM) was 12% and the viability, T/C (second compound 0.003 µM, first compound 1 µM) was 9.95%. The viability, T/C (second compound 0.00949 µM, first compound 0.00316 µM) was 9.77%, the viability, T/C (second compound 0.00949 µM, first compound 0.01 µM) was 10% and the viability, T/C (second compound 0.00949 µM, first compound 0.0316 µM) was 16.4%. It also gave a viability, T/C (second compound 0.00949 µM, first compound 0.1 µM) of 12.3%, a viability, T/C (second compound 0.00949 µM, first compound 0.316 µM) of 11.2% and a viability, T/C (second compound 0.00949 µM, first compound 1 µM) of 7.94%. The viability, T/C (second compound 0.03 µM, first compound 0.00316 µM) was 13.3%, the viability, T/C (second compound 0.03 µM, first compound 0.01 µM) was 11% and the viability, T/C (second compound 0.03 µM, first compound 0.0316 µM) was 11.1%. The viability, T/C (second compound 0.03 µM, first compound 0.1 µM) was 9.53%, the viability, T/C (second compound 0.03 µM, first compound 0.316 µM) was 9.66% and the viability, T/C (second compound 0.03 µM, first compound 1 µM) was 12.4%. For the same compound, the viability, T/C (second compound 0.0949 µM, first compound 0.00316 µM) was 11.5%, the viability, T/C (second compound 0.0949 µM, first compound 0.01 µM) was 10.9% and the viability, T/C (second compound 0.0949 µM, first compound 0.0316 µM) was 12.8%. The viability, T/C (second compound 0.0949 µM, first compound 0.1 µM) was 11.3%, the viability, T/C (second compound 0.0949 µM, first compound 0.316 µM) was 7.92% and the viability, T/C (second compound 0.0949 µM, first compound 1 µM) was 10.5%. For the same compound, the viability, T/C (second compound 0.3 µM, first compound 0.00316 µM) was 15.4%, the viability, T/C (second compound 0.3 µM, first compound 0.01 µM) was 12.6% and the viability, T/C (second compound 0.3 µM, first compound 0.0316 µM) was 11.2%. The viability, T/C (second compound 0.3 µM, first compound 0.1 µM) was 9.08%, the viability, T/C (second compound 0.3 µM, first compound 0.316 µM) was 8.09% and the viability, T/C (second compound 0.3 µM, first compound 1 µM) was 10.1%.
